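Test compounds were applied to cells in 96-well plates for 48 hours at 5 doses. Definition used: TGI = concentration required for complete inhibition of growth.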
Legend:
Assay in all cases: NCI tumour cell line growth inhibition, 48 h
[1] = tested on: EKVX NSCLC
[2] = tested on: SN12C renal
[3] = tested on: M14 melanoma
[4] = tested on: SF-268 CNS
[5] = tested on: BT-549 breast
[6] = tested on: U251 CNS
[7] = tested on: OVCAR-5 ovarian
[8] = tested on: SK-MEL-5 melanoma
[9] = tested on: T-47D breast
[10] = tested on: K-562 leukemia
[11] = tested on: SK-MEL-2 melanoma
[12] = tested on: MDA-MB-231 breast
[13] = tested on: NCI-H226 lung

| Structure (SMILES) | TGI [1] [µM] | TGI [2] [µM] | TGI [3] [µM] | TGI [4] [µM] | TGI [5] [µM] | TGI [6] [µM] | TGI [7] [µM] | TGI [8] [µM] | TGI [9] [µM] | TGI [10] [µM] | TGI [11] [µM] | TGI [12] [µM] | TGI [13] [µM] |
| --- | --- | --- | --- | --- | --- | --- | --- | --- | --- | --- | --- | --- | --- |
| CCC1OC2C(CC=C(C)C)=C3OC(C)(O)C(C)(CC)C(OC(C)=O)C3=C3OC(=O)C=C1C32 (stereo unspecified) | > 100 | 41.2 | > 100 | > 100 | 42.9 | > 100 | 57.9 | 42.2 | > 100 | > 100 | 41.8 | 36.7 | – |
| Cc1ccc(NC(=O)c2cc(S(=O)(=O)Nc3n[nH]c(=O)[nH]3)c(SSc3cc(Cl)c(C(=O)Nc4ccc(C)cc4)cc3S(=O)(=O)Nc3n[nH]c(=O)[nH]3)cc2Cl)cc1 | > 100 | > 100 | > 100 | > 100 | > 100 | > 100 | > 100 | > 100 | – | > 100 | > 100 | > 100 | > 100 |
| O=C1Cc2c([nH]c3ccc(Br)cc23)-c2cc(O)c(O)cc2N1 | > 100 | > 100 | > 100 | > 100 | > 100 | > 100 | > 100 | – | > 100 | > 100 | > 100 | > 100 | > 100 |
| CCOC(=O)NNC(=O)NCc1cccc(CNC(=O)NNC(=O)OCC)c1 | > 100 | > 100 | > 100 | > 100 | > 100 | > 100 | > 100 | > 100 | > 100 | > 100 | > 100 | > 100 | > 100 |
| CCOP1(=O)CC(C)=C(Cl)C(O)C1 (stereo unspecified) | > 100 | > 100 | > 100 | > 100 | > 100 | > 100 | > 100 | > 100 | > 100 | > 100 | > 100 | > 100 | > 100 |
| O=C(/C=C/c1ccccc1)Oc1ccc(C(=O)/C=C/c2ccc(Cl)cc2)cc1 | > 100 | > 100 | > 100 | > 100 | > 100 | > 100 | > 100 | > 100 | > 100 | > 100 | > 100 | > 100 | – |
| COc1cc(O)c2c(=O)c(O)c(-c3ccc(O)c(OC)c3)oc2c1 | > 100 | > 100 | > 100 | > 100 | > 100 | 18.1 | > 100 | > 34.9 | > 100 | 10.5 | > 100 | > 100 | > 100 |
| Fc1ccc(N2C(=S)SC(=Nc3ccccc3)C2=Nc2ccccc2)cc1 | > 100 | > 100 | > 100 | > 100 | > 100 | > 100 | > 100 | > 100 | > 100 | > 100 | > 100 | > 100 | > 100 |
| O=CNCNCCO | > 100 | – | > 100 | > 100 | > 100 | > 100 | > 100 | > 100 | > 100 | > 100 | > 100 | – | > 100 |
| Oc1ccc2cc(Br)ccc2c1-c1c(O)ccc2ccc(Br)cc12 | – | 24.3 | 33.1 | 41.1 | 27.9 | 28 | 30.8 | 37.5 | 25.3 | 35.8 | 31.4 | 21.6 | 30.4 |
| O=C1CSC2(CC(/C=C/c3cccc([N+](=O)[O-])c3)=NN2c2cccc(S(=O)(=O)O)c2)N1c1nc2ccccc2s1 (stereo unspecified) | > 100 | 49.9 | 92.6 | > 100 | 32.7 | 36.3 | 52.1 | > 100 | 73.8 | > 100 | 47.9 | 43.5 | 77.5 |
| O=C(c1cccs1)N(C(=S)OCCOc1ccccc1)c1ccccc1 | 78.8 | 55.5 | 37.1 | > 100 | 65.1 | 48.8 | 70.2 | – | > 100 | > 100 | 55.6 | 61.9 | – |
| CC(=O)Oc1ccc(/C=C/C(=O)OCCCOC(=O)/C=C/c2ccc(OC(C)=O)c(OC(C)=O)c2)cc1OC(C)=O | > 100 | > 100 | > 100 | > 100 | > 100 | > 100 | > 100 | > 100 | > 100 | > 100 | > 100 | > 100 | – |
| CCOC(=O)/C=C/CCO[Si](C)(C)C(C)(C)C | > 100 | > 100 | – | > 100 | > 100 | > 100 | > 100 | > 100 | > 100 | > 100 | > 100 | > 100 | > 100 |
| CC1=NC(=Cc2ccccc2O)C(=O)N1n1c(-c2ccccc2)nc2ccccc2c1=O | > 100 | > 100 | > 100 | > 100 | > 100 | > 100 | > 100 | 61.4 | > 100 | > 100 | – | > 100 | > 100 |
| COC(=O)c1ccc(S)c(S(=O)(=O)Nc2n[nH]c(N)n2)c1 | > 100 | > 100 | > 100 | – | > 100 | > 100 | > 100 | > 100 | > 100 | > 100 | > 100 | > 100 | – |
| NS(=O)(=O)c1nnc(NS(=O)(=O)C(F)(F)F)s1 | > 100 | – | > 100 | > 100 | > 100 | > 100 | > 100 | – | – | > 100 | > 100 | > 100 | > 100 |
| CCCCc1ccc(-n2sc3ncc(C)cc3c2=O)cc1 | 46.9 | 47.2 | 29.4 | – | 40.7 | > 100 | 57.6 | 46.2 | 63.1 | > 100 | > 100 | 44.5 | > 100 |
